Data published in US8304577B2, “Modulators of G protein-coupled receptor 88” (Bristol-Myers Squibb Company, priority 2009, dated 2012).

target: G protein-coupled receptor 88 (GPR88) (Homo sapiens, UniProt Q9GZN0); assay: GPR88 functional assay: EC50 of Table 2 (GTPγS assay and cAMP HTRF assay described; table does not say which); type: cell-based; details: class symbol; read-out: Range (EC50)
Protocol: 96 well GTPγS assay plates were purchased from Perkin Elmer. Wheat Germ Agglutinin PVT SPA beads and ^35S-GTPγS were purchased from Amersham GDP, GTPγS and all buffer reagents were from Sigma. 384 well white NBS plates were purchased from corning. Pertussis toxin was purchased from Calbiochem. All cell culture reagents were purchased from Invitrogen. Forskolin was purchased from Sigma. The cAMP HTRF kit was purchased fron Cisbio International.
The GTPγS assay buffer consisted of 10 mM MgCl2, 180 mM NaCl, 200 uM GDP, 0.167 mg/mL DTT, 1 mM EGTA and 20 mM HEPES pH7.4. This buffer was used for dilution of membranes, beads, and ^35S GTPγS components. To each well of the 96 well assay plate 48 ul assay buffer, 2 ul of 100× compound, 50 ul membrane solution (0.2 ug/ul), 50 ul ^35S GTPγS solution (0.8 nM) and 50 ul of SPA beads (10 mg/mL). Non-specific binding was determined by the addition of cold GTPγS to control wells. The plates were sealed with clear sealing tape and incubated at room temperature for 1 hour. GTPγS activity was detected using a Wallac Micro-Beta Trilux liquid scintillation counter. Non-specific binding was determined using 10 uM cold GTPγS.
The cAMP HTRF assay is modified from the Cisbio International kit procedure 62AM4PEJ. Assay plates were prepared by stamping 0.1 ul of 100× compound stock solutions diluted in DMSO or DMSO alone into 384 well NBS plates. The cAMP HTRF assay was performed using cells in suspension. The cAMP HTRF assay buffer consisted of Hank's Balanced Salt Solution (HBSS), 2 mM CaCl2, 5 mM MgCl2, 20 mM HEPES and 1 mM 3-isobutyl-1-methylxanthine (IBMX) (added fresh at the time of assay). For pertussis toxin treatment pertussis toxin (100 ng/mL) was added to culture medium for 16 hours prior to assay. Confluent cells were disrupted with cell dissociation buffer count cells then centrifuged at 1000×g for 5 minutes. The cell pellet was resuspended in assay buffer alone for basal cAMP measurements or with 0.75 uM forskolin (added immediately prior to addition to wells) for addition to all other wells. Using a Multidrop 384 (Lab systems) 10 ul of cell suspension was added to each well containing compound or DMSO. The plates were incubated at room temperature for 30 minutes covered. During this time the cAMP standard curve was prepared as per manufacturer's instruction. At the end of the incubation 10 ul of anti-cAMP cryptate and 10 ul cAMP-XL, diluted in manufacturer's lysis buffer, were added to each well. The plated were incubated at room temperature for 60 minutes covered then read on an Envision plate reader (Perkin Elmer) and the 665 nm/620 nm fluorescence ratio determined Fluorescence ratio values were converted to molar cAMP concentrations from the standard curve using the GraphPad Prism program.

Chain of G protein-coupled receptor 88 (GPR88) (Q9GZN0 whole entry, species assumed): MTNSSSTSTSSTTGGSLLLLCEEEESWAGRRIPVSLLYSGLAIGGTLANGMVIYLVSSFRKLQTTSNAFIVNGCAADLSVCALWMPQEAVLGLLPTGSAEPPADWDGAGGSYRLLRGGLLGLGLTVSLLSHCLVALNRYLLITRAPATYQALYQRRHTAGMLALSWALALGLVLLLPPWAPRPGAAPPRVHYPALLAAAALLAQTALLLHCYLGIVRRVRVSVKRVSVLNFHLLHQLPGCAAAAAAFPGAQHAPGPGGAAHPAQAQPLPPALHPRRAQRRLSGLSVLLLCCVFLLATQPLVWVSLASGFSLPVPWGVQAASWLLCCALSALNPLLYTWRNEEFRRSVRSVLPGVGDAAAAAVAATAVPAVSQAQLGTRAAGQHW

SMILES	EC50 [nM]
CCCC(C)COc1ccc([C@H](CNCc2cc[nH]n2)NC(=O)[C@@H](C)c2ccccc2)cc1 (stereo partly drawn) [Example 11, (2S)-N-((1R)-2-((1H-Pyrazol-3-yl)methylamino)-1-(4-(2-methylpentyloxy)phenyl)ethyl)-2-phenylpropanamide]	100 to 200
CCCC(C)COc1ccc([C@H](CNCC(C)CC)NC(=O)[C@@H](C)c2ccccc2)cc1 (stereo partly drawn) [Example 8, (2S)-N-((1R)-2-(2-Methylbutylamino)-1-(4-(2-methylpentyloxy)phenyl)ethyl)-2-phenylpropanamide]	100 to 200
CCCC(C)COc1ccc([C@H](CNCc2cccnc2)NC(=O)[C@@H](C)c2ccccc2)cc1 (stereo partly drawn) [Example 13, (2S)-N-((1R)-1-(4-(2-Methylpentyloxy)phenyl)-2-(pyridin-3-ylmethylamino)ethyl)-2-phenylpropanamide]	100 to 200
CCCC(C)COc1ccc([C@H](CNCc2c[nH]c3ccccc23)NC(=O)[C@@H](C)c2ccccc2)cc1 (stereo partly drawn) [Example 12, (2S)-N-((1R)-2-((1H-Indol-3-yl)methylamino)-1-(4-(2-methylpentyloxy)phenyl)ethyl)-2-phenylpropanamide]	100 to 200
CCCC(C)COc1ccc([C@H](CNC(=O)[C@@H](N)CC)NC(=O)[C@@H](C)c2ccccc2)cc1 (stereo partly drawn) [Example 25, (2S)-2-Amino-N-((2R)-2-(4-(2-methylpentyloxy)phenyl)-2-((S)-2-phenylpropanamido)ethyl)butanamide]	39 to 99
CCCC(C)COc1ccc([C@H](CNCc2ccncc2)NC(=O)[C@@H](C)c2ccccc2)cc1 (stereo partly drawn) [Example 9, (2S)-N-((1R)-1-(4-(2-Methylpentyloxy)phenyl)-2-(pyridin-4-ylmethylamino)ethyl)-2-phenylpropanamide]	100 to 200
CCCNC[C@H](NC(=O)[C@@H](C)c1ccccc1)c1ccc(OC[C@@H](C)CC)cc1 [Example 38, (S)-N-{(R)-1-[4-((S)-2-Methyl-butoxy)-phenyl]-2-propylamino-ethyl}-2-phenylpropionamide]	100 to 200
CC[C@H](C)COc1ccc([C@H](CN)NC(=O)[C@@H](C)c2ccccc2)cc1 [Example 37, (2S)-N-((1R)-2-Amino-1-[4-((S)-2-methylbutoxy)phenyl]-ethyl)-2-phenylpropionamide]	39 to 99
CC[C@H](C)COc1ccc([C@@H](NC(=O)[C@@H](C)c2ccccc2)[C@@H](C)O)cc1 [Example 39, (S)-N-{(1R,2R)-2-Hydroxy-1-[4-((S)-2-methyl-butoxy)-phenyl]-propyl}-2-phenylpropionamide]	100 to 200
CCCC(C)COc1ccc([C@H](CNC[C@H](C)N)NC(=O)[C@@H](C)c2ccccc2)cc1 (stereo partly drawn) [Example 17, (2S)-N-((1R)-2-((S)-2-Aminopropylamino)-1-(4-(2-methylpentyloxy)phenyl)ethyl)-2-phenylpropanamide]	100 to 200
CCCC(C)COc1ccc([C@H](CNC(=O)[C@@H](N)C(C)C)NC(=O)[C@@H](C)c2ccccc2)cc1 (stereo partly drawn) [Example 24, (2S)-2-Amino-3-methyl-N-((2R)-2-(4-(2-methylpentyloxy)phenyl)-2-((S)-2-phenylpropanamido)ethyl)butanamide]	39 to 99
CCCC(C)COc1ccc([C@H](CNC(=O)[C@@H](N)[C@@H](C)OC)NC(=O)[C@@H](C)c2ccccc2)cc1 (stereo partly drawn) [Example 32, (2S,3R)-2-Amino-3-methoxy-N-((2R)-2-(4-(2-methylpentyloxy)phenyl)-2-((S)-2-phenylpropanamido)ethyl)butanamide]	100 to 200
CCCC(C)COc1ccc([C@H](CNC(=O)[C@@H](N)[C@H](C)CC)NC(=O)[C@@H](C)c2ccccc2)cc1 (stereo partly drawn) [Example 27, (2S,3R)-2-Amino-3-methyl-N-((2R)-2-(4-(2-methylpentyloxy)phenyl)-2-((S)-2-phenylpropanamido)ethyl)pentanamide]	100 to 200
CCCC(C)COc1ccc([C@H](CNC(=O)[C@H](N)[C@@H](C)CC)NC(=O)[C@@H](C)c2ccccc2)cc1 (stereo partly drawn) [Example 33, (2R,3S)-2-Amino-3-methyl-N-((2R)-2-(4-(2-methylpentyloxy)phenyl)-2-((S)-2-phenylpropanamido)ethyl)pentanamide]	100 to 200
CCCC(C)COc1ccc([C@H](CNC(=O)[C@@H](N)CCC)NC(=O)[C@@H](C)c2ccccc2)cc1 (stereo partly drawn) [Example 26, (2S)-2-Amino-N-((2R)-2-(4-(2-methylpentyloxy)phenyl)-2-((S)-2-phenylpropanamido)ethyl)pentanamide]	39 to 99
CCCC(C)COc1ccc([C@H](CNC(=O)[C@H](N)CC(C)C)NC(=O)[C@@H](C)c2ccccc2)cc1 (stereo partly drawn) [Example 20, (2R)-2-Amino-4-methyl-N-((2R)-2-(4-(2-methylpentyloxy)phenyl)-2-((S)-2-phenylpropanamido)ethyl)pentanamide]	39 to 99
CCCC(C)COc1ccc([C@H](CO)NC(=O)[C@@H](CC)c2ccccc2)cc1 (stereo partly drawn) [Example 2, (2S)-N-((1R)-2-Hydroxy-1-(4-(2-methylpentyloxy)phenyl)ethyl)-2-phenylbutanamide]	100 to 200
CCCC(C)COc1ccc([C@H](CNC(=O)[C@H](N)C2CC2)NC(=O)[C@@H](C)c2ccccc2)cc1 (stereo partly drawn) [Example 30, (2S)-N-((1R)-2-((R)-2-Amino-2-cyclopropylacetamido)-1-(4-(2-methylpentyloxy)phenyl)ethyl)-2-phenylpropanamide]	100 to 200
CCCC(C)COc1ccc([C@H](CNC(=O)[C@H](N)Cc2cscn2)NC(=O)[C@@H](C)c2ccccc2)cc1 (stereo partly drawn) [Example 34, (2R)-2-Amino-N-((2R)-2-(4-(2-methylpentyloxy)phenyl)-2-((S)-2-phenylpropanamido)ethyl)-3-(thiazol-4-yl)propanamide]	100 to 200
CCCC(C)COc1ccc([C@H](CO)NC(=O)[C@@H](CO)c2ccccc2)cc1 (stereo partly drawn) [Example 3, (2R)-3-Hydroxy-N-((1R)-2-hydroxy-1-(4-(2-methylpentyloxy)phenyl)ethyl)-2-phenylpropanamide]	100 to 200
CCCC(C)COc1ccc([C@H](CNC(=O)[C@H](N)[C@H](C)CC)NC(=O)[C@@H](C)c2ccccc2)cc1 (stereo partly drawn) [Example 22, (2R,3R)-2-Amino-3-methyl-N-((2R)-2-(4-(2-methylpentyloxy)phenyl)-2-((S)-2-phenylpropanamido)ethyl)pentanamide]	39 to 99

same assay, conditions: exact value given; read-out: Range (EC50)

SMILES	EC50 [nM]
CCCC(C)COc1ccc([C@H](CNC(=O)[C@@H]2CCCN2)NC(=O)[C@@H](C)c2ccccc2)cc1 (stereo partly drawn) [Example 21, (2S)-N-((2R)-2-(4-(2-Methylpentyloxy)phenyl)-2-((S)-2-phenylpropanamido)ethyl)pyrrolidine-2-carboxamide]	89
CC(C)COc1ccc([C@@H](NC(=O)[C@@H](C)c2ccccc2)[C@H]2CCCN2)cc1 [Example 40, (S)-N-((R)-(4-Isobutoxyphenyl)((R)-pyrrolidin-2-yl)methyl)-2-phenylpropanamide]	254
CCCC(C)COc1ccc([C@H](CNCc2ccccn2)NC(=O)[C@@H](C)c2ccccc2)cc1 (stereo partly drawn) [Example 10, (2S)-N-((1R)-1-(4-(2-Methylpentyloxy)phenyl)-2-(pyridin-2-ylmethylamino)ethyl)-2-phenylpropanamide]	110
